In US20080119530A1, “Method for treatment and prevention of ultraviolet light induced skin pathologies” (priority 2006, published 2008):
Marks after values point to notes of the source that are not given here.

Columns and labels:
[1] = test system: keratin 5, loricrin; assay: Differentiation markers in UV-exposed skin; type: in vivo, mouse; settings: inhibition prior to UV irradiation
[2] = test system: skin; assay: Affymetrix microarray analysis of gene expression in mouse skin; type: in vivo
From the text: Adult female CD-1 mice were maintained in our animal facility and provided with Purina lab chow (Nestlé Purina PetCare, St. Louis, Mo.) and water ad libitum. The dorsal skin was clipped one day before treatment and shaved with a Remington Microscreen shaver (Wahl, Sterling, II) on the day of treatment. […] UVB TL 40W/12 RS bulbs (Philips, Somerset, N.J.) were used that emitted approximately 30% UV-A, 70% UV-B and <1% UV-C, with a total output of 470 μW/cm^2, as measured with radiometric photodetector probes (Newport, Irvine, Calif.). Skin-fold thickness was measured using calipers to lightly pinch the dorsal skin. All animal procedures were approved by our Institutional Animal Care and Use Committee.
Microarray Analysis. Flash frozen skin was ground to a powder using a mortar and pestle and RNA extracted using a PowerGen 700 tissue homogenizer (Fisher, Hampton, N.H.) in TRIzol reagent (Invitrogen, Carlsbad, Calif.) according to the manufacturer's protocol. Total RNA was further purified using RNeasy Midi Columns according to the manufacturer's protocol (Qiagen, Valencia, Calif.). The quality of the RNA was assessed using an RNA 6000 Pico Assay (Aligent, Palo Alto, Calif.) with a Bioanalyzer (Agilent, Palo Alto, Calif.). Mouse MOE430A gene chips were purchased from Affymetrix (Santa Clara, Calif.). Five micrograms of total RNA from each sample was reverse transcribed using Superscript II (Invitrogen, Carlsbad, Calif.). In vitro transcription to generate biotinylated cRNA was performed using the Bioarray High Yield RNA Transcript Labeling kit (Enzo Diagnostics, Farmingdale, N.Y.). Fifteen micrograms of fragmented cRNA was hybridized for 16 h to mouse MOE430A chips at 45° C. using the Affymetrix 640 hybridization oven, stained, and scanned using the Agilent scanner according to standard Affymetrix protocols. Signal intensities from the Affymetrix “.CEL” files were derived using GeneChip Operating Software v1.2 (Affymetrix, Santa Clara, Calif.), multiplicative model-based expression index (dChip software)^19 and robust multi-array average^20. The data discussed in this publication have been deposited in NCBIs Gene Expression Omnibus (GEO) and are accessible through GEO Series accession number GSE4066. Methods employed to determine significant changes in gene expression from the derived signal intensities were Rank Products (RP)21, Significance Analysis of Microarrays (SAM)^22, Analysis of Variance (ANOVA), Student's t-test, and fold-change. […] Hierarchical clustering of gene expression was performed with dChip software. […] Significant clustering was also found among samples 6 h after UV and among samples 24 h after UV. Furthermore, significant clustering was found among samples treated with DMSO and among those treated with AG825. Scatter plots were generated using GeneChip Operating Software. Self-Organizing Maps were generated using GeneCluster 2.0 software^23. Grouping of genes into biological processes was performed using NetAffx Analysis Center and literature searches. Genes were mapped into biological networks with Pathways Analysis software (Ingenuity Systems, Mountain View, Calif.). Promoter Analysis and Interaction Network Toolset v3.3 (PAINT) was used to scan sequences up to 2000 base pair upstream of genes with altered expression to search for transcription factor binding sequences or transcriptional response elements (TRE) using a 0.95 core similarity threshold^24.
The influence of Erbb2 on gene expression following UV exposure was assessed using microarray analysis. […] Mice were exposed to UV twice because previous results indicated the influence of Erbb receptors on the response of the skin to UV increases with multiple exposures (22). […] In two randomly selected vehicle-treated and sham-irradiated mice, 8 genes out of approximately 13,000 detected (<0.1%) were expressed with more than a 5-fold difference between them. […]

[3] = Adhesion and Migration, 6 h post-UV
[4] = Adhesion and Migration, 24 h post-UV
[5] = Cell Communication, 6 h post-UV
[6] = Cell Communication, 24 h post-UV
[7] = Pigment Biosynthesis, 6 h post-UV
[8] = Pigment Biosynthesis, 24 h post-UV

Compound: COc1cc(/C=C(\C#N)C(N)=O)cc(CSc2nc3ccccc3s2)c1O [AG825]
- localization or expression of early (keratin 5) or late (loricrin) markers of differentiation [1]: did not alter
- number of genes with altered expression ([2]; 6 h after UV): 218
- share of the altered genes with increased expression ([2]; 6 h after UV): 61%
- number of genes with altered expression ([2]; 24 h after UV): 127
- share of the altered genes with increased expression ([2]; 24 h after UV): 54%
- fold increase in Mmp9 expression ([2]; 24 h after UV exposure, Affymetrix data): 2 fold
- Thbs1 expression vs vehicle-treated mice ([2]; 24 h post-UV, Affymetrix probe): similar
- Total number of genes changed in AG825-treated samples ([2]; Adhesion and Migration): 47
- percentage of the total number of genes altered by Erbb2 ([2]; Adhesion and Migration): (13%)
- Number of genes decreased (↓) in AG825-treated samples when compared to the vehicle alone [2, 3]: 13
- Number of genes increased (↑) in AG825-treated samples when compared to the vehicle alone [2, 3]: 14
- Number of genes decreased (↓) in AG825-treated samples when compared to the vehicle alone [2, 4]: 14
- Number of genes increased (↑) in AG825-treated samples when compared to the vehicle alone [2, 4]: 4
- Number of genes decreased (↓) in AG825-treated samples when compared to the vehicle alone ([2]; Adhesion and Migration, Sham): 0
- Number of genes increased (↑) in AG825-treated samples when compared to the vehicle alone ([2]; Adhesion and Migration, Sham): 7
- Total number of genes changed in AG825-treated samples ([2]; Apoptosis): 25
- percentage of the total number of genes altered by Erbb2 ([2]; Apoptosis): (7%)
- Number of genes decreased (↓) in AG825-treated samples when compared to the vehicle alone ([2]; Apoptosis, 6 h post-UV): 6
- Number of genes increased (↑) in AG825-treated samples when compared to the vehicle alone ([2]; Apoptosis, 6 h post-UV): 5
- Number of genes decreased (↓) in AG825-treated samples when compared to the vehicle alone ([2]; Apoptosis, 24 h post-UV): 4
- Number of genes increased (↑) in AG825-treated samples when compared to the vehicle alone ([2]; Apoptosis, 24 h post-UV): 6
- Number of genes decreased (↓) in AG825-treated samples when compared to the vehicle alone ([2]; Apoptosis, Sham): 2
- Number of genes increased (↑) in AG825-treated samples when compared to the vehicle alone ([2]; Apoptosis, Sham): 2
- Total number of genes changed in AG825-treated samples ([2]; Cancer): 55
- percentage of the total number of genes altered by Erbb2 ([2]; Cancer): (15%)
- Number of genes decreased (↓) in AG825-treated samples when compared to the vehicle alone ([2]; Cancer, 6 h post-UV): 12
- Number of genes increased (↑) in AG825-treated samples when compared to the vehicle alone ([2]; Cancer, 6 h post-UV): 25
- Number of genes decreased (↓) in AG825-treated samples when compared to the vehicle alone ([2]; Cancer, 24 h post-UV): 7
- Number of genes increased (↑) in AG825-treated samples when compared to the vehicle alone ([2]; Cancer, 24 h post-UV): 8
- Number of genes decreased (↓) in AG825-treated samples when compared to the vehicle alone ([2]; Cancer, Sham): 3
- Number of genes increased (↑) in AG825-treated samples when compared to the vehicle alone ([2]; Cancer, Sham): 5
- Total number of genes changed in AG825-treated samples ([2]; Cell Communication): 65
- percentage of the total number of genes altered by Erbb2 ([2]; Cell Communication): (18%)
- Number of genes decreased (↓) in AG825-treated samples when compared to the vehicle alone [2, 5]: 18
- Number of genes increased (↑) in AG825-treated samples when compared to the vehicle alone [2, 5]: 18
- Number of genes decreased (↓) in AG825-treated samples when compared to the vehicle alone [2, 6]: 20
- Number of genes increased (↑) in AG825-treated samples when compared to the vehicle alone [2, 6]: 5
- Number of genes decreased (↓) in AG825-treated samples when compared to the vehicle alone ([2]; Cell Communication, Sham): 1
- Number of genes increased (↑) in AG825-treated samples when compared to the vehicle alone ([2]; Cell Communication, Sham): 6
- Total number of genes changed in AG825-treated samples ([2]; Development): 55
- percentage of the total number of genes altered by Erbb2 ([2]; Development): (15%)
- Number of genes decreased (↓) in AG825-treated samples when compared to the vehicle alone ([2]; Development, 6 h post-UV): 8
- Number of genes increased (↑) in AG825-treated samples when compared to the vehicle alone ([2]; Development, 6 h post-UV): 26
- Number of genes decreased (↓) in AG825-treated samples when compared to the vehicle alone ([2]; Development, 24 h post-UV): 12
- Number of genes increased (↑) in AG825-treated samples when compared to the vehicle alone ([2]; Development, 24 h post-UV): 4
- Number of genes decreased (↓) in AG825-treated samples when compared to the vehicle alone ([2]; Development, Sham): 2
- Number of genes increased (↑) in AG825-treated samples when compared to the vehicle alone ([2]; Development, Sham): 6
- Total number of genes changed in AG825-treated samples ([2]; Immune Response): 65
- percentage of the total number of genes altered by Erbb2 ([2]; Immune Response): (18%)
- Number of genes decreased (↓) in AG825-treated samples when compared to the vehicle alone ([2]; Immune Response, 6 h post-UV): 42
- Number of genes increased (↑) in AG825-treated samples when compared to the vehicle alone ([2]; Immune Response, 6 h post-UV): 3
- Number of genes decreased (↓) in AG825-treated samples when compared to the vehicle alone ([2]; Immune Response, 24 h post-UV): 14
- Number of genes increased (↑) in AG825-treated samples when compared to the vehicle alone ([2]; Immune Response, 24 h post-UV): 4
- Number of genes decreased (↓) in AG825-treated samples when compared to the vehicle alone ([2]; Immune Response, Sham): 0
- Number of genes increased (↑) in AG825-treated samples when compared to the vehicle alone ([2]; Immune Response, Sham): 8
- Total number of genes changed in AG825-treated samples ([2]; Metabolism): 158
- Number of genes decreased (↓) in AG825-treated samples when compared to the vehicle alone ([2]; Metabolism, 6 h post-UV): 23
- Number of genes increased (↑) in AG825-treated samples when compared to the vehicle alone ([2]; Metabolism, 6 h post-UV): 63
- Number of genes decreased (↓) in AG825-treated samples when compared to the vehicle alone ([2]; Metabolism, 24 h post-UV): 24
- Number of genes increased (↑) in AG825-treated samples when compared to the vehicle alone ([2]; Metabolism, 24 h post-UV): 43
- Number of genes decreased (↓) in AG825-treated samples when compared to the vehicle alone ([2]; Metabolism, Sham): 10
- Number of genes increased (↑) in AG825-treated samples when compared to the vehicle alone ([2]; Metabolism, Sham): 9
- Total number of genes changed in AG825-treated samples ([2]; Pigment Biosynthesis): 6
- percentage of the total number of genes altered by Erbb2 ([2]; Pigment Biosynthesis): (2%)
- Number of genes decreased (↓) in AG825-treated samples when compared to the vehicle alone [2, 7]: 0
- Number of genes increased (↑) in AG825-treated samples when compared to the vehicle alone [2, 7]: 5
- Number of genes decreased (↓) in AG825-treated samples when compared to the vehicle alone [2, 8]: 0
- Number of genes increased (↑) in AG825-treated samples when compared to the vehicle alone [2, 8]: 1
- Number of genes decreased (↓) in AG825-treated samples when compared to the vehicle alone ([2]; Pigment Biosynthesis, Sham): 3
- Number of genes increased (↑) in AG825-treated samples when compared to the vehicle alone ([2]; Pigment Biosynthesis, Sham): 0
- Total number of genes changed in AG825-treated samples ([2]; Proliferation): 36
- percentage of the total number of genes altered by Erbb2 ([2]; Proliferation): (10%)^c
- Number of genes decreased (↓) in AG825-treated samples when compared to the vehicle alone ([2]; Proliferation, 6 h post-UV): 6
- Number of genes increased (↑) in AG825-treated samples when compared to the vehicle alone ([2]; Proliferation, 6 h post-UV): 21
- Number of genes decreased (↓) in AG825-treated samples when compared to the vehicle alone ([2]; Proliferation, 24 h post-UV): 3
- Number of genes increased (↑) in AG825-treated samples when compared to the vehicle alone ([2]; Proliferation, 24 h post-UV): 6
- Number of genes decreased (↓) in AG825-treated samples when compared to the vehicle alone ([2]; Proliferation, Sham): 3^b
- Number of genes increased (↑) in AG825-treated samples when compared to the vehicle alone ([2]; Proliferation, Sham): 2
- Total number of genes changed in AG825-treated samples ([2]; Total Genes): 361
- Number of genes decreased (↓) in AG825-treated samples when compared to the vehicle alone ([2]; Total Genes, 6 h post-UV): 85
- Number of genes increased (↑) in AG825-treated samples when compared to the vehicle alone ([2]; Total Genes, 6 h post-UV): 133
- Number of genes decreased (↓) in AG825-treated samples when compared to the vehicle alone ([2]; Total Genes, 24 h post-UV): 59
- Number of genes increased (↑) in AG825-treated samples when compared to the vehicle alone ([2]; Total Genes, 24 h post-UV): 68
- Number of genes decreased (↓) in AG825-treated samples when compared to the vehicle alone ([2]; Total Genes, Sham): 14
- Number of genes increased (↑) in AG825-treated samples when compared to the vehicle alone ([2]; Total Genes, Sham): 25
- expression of cell cycle regulatory genes such as Ccna2, Ccnb1 and Ccnb2 ([2]; after UV): lesser responsiveness to UV
- share of the altered genes with increased expression ([2]; all 361 genes): 61%
- expression of proinflammatory chemokines such as Cxcl2 and Cd44 compared to vehicle-treated skin ([2]; by 24 h after UV exposure): lower
- Il1 b expression: fold greater increase after UV in vehicle-treated compared to AG825-treated samples ([2]; microarray): 16 fold
- expression of the anti-apoptotic genes Ghr and Ptgs2 ([2]; mouse, in vivo): suppressed
- fold higher Thbs1 expression compared to corresponding control ([2]; sham-irradiated skin, Affymetrix probe): 2 fold
- number of genes with altered expression ([2]; without UV irradiation): 39
- share of the altered genes with increased expression ([2]; without UV irradiation): 64%
